From US20210113501A1, “METHOD OF ADMINISTERING BETA-HYDROXY-BETA-METHYLBUTYRATE (HMB)” (Metabolic Technologies, Inc., priority 2009, published 2021)
Marks after values point to notes of the source that are not given here.

Key:
[1] = Study 1 hematology (complete blood count); type: in vivo, human; conditions: for Basophils (absolute) % Change / Basophils, % - % Change / Eosinophils (absolute) % Change / Eosinophils, % - % Change / Hematocrit % Change / Hemoglobin % Change / Lymphocytes (absolute) % Change / Lymphocytes, % - % Change / MCH % Change / MCHC % Change / MCV % Change / Monocytes (absolute) % Change / Monocytes, % - % Change / Neutrophils (absolute) % Change / Neutrophils, % - % Change / Platelets % Change / RBC % Change / RDW % Change / WBC % Change: Before to After
Procedure: (§1) Study 1 design. For study 1 the subjects reported to the laboratory in the morning following an overnight fast. Before ingestion of one of the supplemental treatments, a flexible sterile polyethylene catheter was inserted into a forearm vein using sterile procedures and a pre-ingestion blood sample was drawn. Subsequent blood samples were taken at 0, 2, 5, 10, 15, 25, 35, 45, 60, 90, 120 and 180 min after ingestion of the treatment. Plasma was separated and samples were stored frozen at −70° C. for analysis of HMB concentration. In addition, a portion of the pre-ingestion and 180 minute blood samples were used for measurements (LabCorp, Kansas City, Mo.) of glucose, uric acid, blood urea nitrogen (BUN), creatinine, sodium, potassium, chloride, carbon dioxide, phosphorous, protein, albumin, globulin, albumin:globulin ratio, total bilirubin, direct bilirubin, alkaline phosphatase, lactate dehydrogenase, aspartate aminotransferase (AST), alanine aminotransferase (ALT), gamma-glutamyl transpeptidase (GGT), iron binding capacity (TIBC), unsaturated iron binding capacity (UIBC), iron, iron saturation, total cholesterol, triglycerides, high density lipoprotein (HDL), low density lipoprotein (LDL), and cholesterol ratio. A complete blood count (CBC) was also performed before and after the 180 min treatment period. Subjects also completed a brief questionnaire to report any physical symptoms (such as nausea, headache, etc) they may have experienced during the experiment.
The data were analyzed using a crossover design with Proc GLM in SAS. (45) For the timed sampling of plasma HMB a repeated measures polynomial model was used. The model included subject, order, and treatment main effects and time by treatment interaction where appropriate. For other parameters Proc GLM was also used with subject, order, and treatment main effects and the p values are reported for the treatment main effect. Statistical significance was determined for p<0.05 and a trend was determined for 0.05<p<0.10.

[2] = Study 1: plasma HMB after a single dose, sampled to 180 min; type: in vivo, human; conditions: for greater area under the curve (AUC) than CaHMB / AUC plasma HMB: 180 min; for Cpeak (peak plasma HMB concentration): single dose 1 g CaHMB or 0.80 g free acid
From the text: Human subjects. In study 1, four male and four female college-aged subjects were studied. In study 2, an additional four male and four female college-aged subjects were studied. The protocols for both studies were approved by the Iowa State University IRB and each subject gave informed consent to participate in the study. Due to the nature of the treatments, neither the subjects nor the researchers could be blinded.
Treatments. The same treatments were given to the subjects in both study groups. The three treatments were given in random order to each subject with at least a one week washout period between treatments. The treatments were supplied by Metabolic Technologies, Inc. (MTI, Ames, Iowa) and were prepared with food grade ingredients. One gram of CaHMB or the equivalent HMB in free acid in a gel form was administered to the subjects. The CaHMB capsules were obtained from a commercial supplement manufacturer (Optimum Nutrition, Aurora, Ill.) while the HMB-acid gel was prepared at MTI laboratories. Briefly, the HMB-acid was adjusted to a pH 4.5 with potassium carbonate (K2CO3) and flavors and sweeteners were then added. The 1.0 g CaHMB capsule was taken with 355 mL of water (approx. 12 oz.). The free acid gel dosage was 0.80 g and was equivalent to the free acid contained in the CaHMB in the capsule. The free acid gel treatments were either swallowed (FASW) or held sublingual for 15 seconds and then swallowed (FASL). FASW consisted of expelling the entire dose into the mouth in a 3 ml syringe, swallowing, and then following this with 355 mL of water. FASL subjects were instructed to place the entire dosage under the tongue and hold the dosage for 15 sec before swallowing. They then rinsed and followed the dose with 355 mL of water.
as §1
HMB analysis. Plasma and urine HMB were analyzed by gas chromatography/mass spectrometry (GC/MS) as previously described.(27)
Calculations and statistics. Areas under the curves were calculated for each subject using the trapezoidal method that sums the area above baseline.(51) Half-life of plasma HMB was calculated for study 2. The following equations were used: […]
The data were analyzed using a crossover design with Proc GLM in SAS. (45) For the timed sampling of plasma HMB a repeated measures polynomial model was used. The model included subject, order, and treatment main effects and time by treatment interaction where appropriate. […]

[3] = listed as Free Acid Gel Swallow
[4] = listed as Free Acid Gel Sublingual

CC(C)(O)CC(=O)O [HMB-Acid Gel Swallow, 3-hydroxy-3-methylbutyric acid]
Basophils (absolute) ([1]; After (180 min)): 0.04 ± 0.02 ×10^3/μL | Basophils, % ([1]; After (180 min)): 0.4 ± 0.2% | Eosinophils (absolute) ([1]; After (180 min)): 0.1 ± 0.02 ×10^3/μL | Eosinophils, % ([1]; After (180 min)): 2.4 ± 0.4% | Hematocrit ([1]; After (180 min)): 37.6 ± 1.5% | Hemoglobin ([1]; After (180 min)): 13.0 ± 0.5 g/dL | Lymphocytes (absolute) ([1]; After (180 min)): 2.2 ± 0.1 ×10^3/μL | Lymphocytes, % ([1]; After (180 min)): 37.4 ± 1.9% | MCH ([1]; After (180 min)): 31.4 ± 0.8 pg | MCHC ([1]; After (180 min)): 34.6 ± 0.3 g/dL | MCV ([1]; After (180 min)): 90.0 ± 1.5 fL | Monocytes (absolute) ([1]; After (180 min)): 0.5 ± 0.04 ×10^3/μL | Monocytes, % ([1]; After (180 min)): 7.0 ± 0.6% | Neutrophils (absolute) ([1]; After (180 min)): 3.3 ± 0.2 ×10^3/μL | Neutrophils, % ([1]; After (180 min)): 52.9 ± 2.2% | Platelets ([1]; After (180 min)): 202.4 ± 25. ×10^3/μL | RBC ([1]; After (180 min)): 4.2 ± 0.2 ×10^6/µL | RDW ([1]; After (180 min)): 13.2 ± 0.3% | WBC ([1]; After (180 min)): 6.1 ± 0.3 ×10^3/μL | Basophils (absolute) ([1]; Before): 0.01 ± 0.01^a ×10^3/μL | Basophils, % ([1]; Before): 0.1 ± 0.1^a % | Eosinophils (absolute) ([1]; Before): 0.2 ± 0.04 ×10^3/μL | Eosinophils, % ([1]; Before): 2.5 ± 0.3% | Hematocrit ([1]; Before): 37.6 ± 1.6% | Hemoglobin ([1]; Before): 13.1 ± 0.5 g/dL | Lymphocytes (absolute) ([1]; Before): 3.1 ± 0.3 ×10^3/μL | Lymphocytes, % ([1]; Before): 43.8 ± 2.8% | MCH ([1]; Before): 31.2 ± 0.7 pg | MCHC ([1]; Before): 34.7 ± 0.3 g/dL | MCV ([1]; Before): 90.1 ± 1.3 fL | Monocytes (absolute) ([1]; Before): 0.5 ± 0.1 ×10^3/μL | Monocytes, % ([1]; Before): 7.6 ± 0.7% | Neutrophils (absolute) ([1]; Before): 3.0 ± 0.2 ×10^3/μL | Neutrophils, % ([1]; Before): 46.0 ± 2.8% | Platelets ([1]; Before): 195.0 ± 31.5 ×10^3/μL | RBC ([1]; Before): 4.2 ± 0.2 ×10^6/µL | RDW ([1]; Before): 13.2 ± 0.2% | WBC ([1]; Before): 6.7 ± 0.5 ×10^3/μL | Basophils (absolute) % Change [1]: 200.0% | Basophils, % - % Change [1]: 200.0% | Eosinophils (absolute) % Change [1]: −41.2% | Eosinophils, % - % Change [1]: −5.0% | Hematocrit % Change [1]: −0.1% | Hemoglobin % Change [1]: −0.4% | Lymphocytes (absolute) % Change [1]: −29.1% | Lymphocytes, % - % Change [1]: −14.6% | MCH % Change [1]: 0.7% | MCHC % Change [1]: −0.3% | MCV % Change [1]: −0.1% | Monocytes (absolute) % Change [1]: −7.7% | Monocytes, % - % Change [1]: −8.2% | Neutrophils (absolute) % Change [1]: 10.9% | Neutrophils, % - % Change [1]: 14.9% | Platelets % Change [1]: 3.8% | RBC % Change [1]: 0.1% | RDW % Change [1]: 0.4% | WBC % Change [1]: −10.2% | decrease in absolute lymphocyte numbers over the measurement period ([1]; p<0.04): significantly greater decrease | greater area under the curve (AUC) than CaHMB ([2]; listed as FASW): 97% | AUC plasma HMB [2, 3]: 27,532 ± 1,742 nmol/180 min | tpeak (time to reach peak plasma concentration) ([2]; listed as FASW): 33.1 ± 4.6 min | tpeak (time to reach peak plasma concentration) [2, 3]: 33.1 ± 4.6 min | Cpeak (peak plasma HMB concentration) ([2]; listed as FASW): 259 ± 24 nmol/mL | Cpeak (peak plasma HMB concentration) [2, 3]: 259.1 ± 23.9 nmol/mL

CC(C)(O)CC(=O)O [HMB-Acid Gel Sublingual, 3-hydroxy-3-methylbutyric acid]
Basophils (absolute) ([1]; After (180 min)): 0.03 ± 0.02 ×10^3/μL | Basophils, % ([1]; After (180 min)): 0.3 ± 0.2% | Eosinophils (absolute) ([1]; After (180 min)): 0.1 ± 0.02 ×10^3/μL | Eosinophils, % ([1]; After (180 min)): 1.8 ± 0.3% | Hematocrit ([1]; After (180 min)): 38.5 ± 1.7% | Hemoglobin ([1]; After (180 min)): 13.3 ± 0.6 g/dL | Lymphocytes (absolute) ([1]; After (180 min)): 2.2 ± 0.2 ×10^3/μL | Lymphocytes, % ([1]; After (180 min)): 35.5 ± 2.1% | MCH ([1]; After (180 min)): 31.0 ± 0.5 pg | MCHC ([1]; After (180 min)): 34.5 ± 0.2 g/dL | MCV ([1]; After (180 min)): 89.9 ± 1.7 fL | Monocytes (absolute) ([1]; After (180 min)): 0.5 ± 0.05 ×10^3/μL | Monocytes, % ([1]; After (180 min)): 7.1 ± 0.7% | Neutrophils (absolute) ([1]; After (180 min)): 3.5 ± 0.3 ×10^3/μL | Neutrophils, % ([1]; After (180 min)): 55.4 ± 2.9% | Platelets ([1]; After (180 min)): 213.9 ± 19.1 ×10^3/μL | RBC ([1]; After (180 min)): 4.3 ± 0.2 ×10^6/µL | RDW ([1]; After (180 min)): 13.3 ± 0.2% | WBC ([1]; After (180 min)): 6.3 ± 0.4 ×10^3/μL | Basophils (absolute) ([1]; Before): 0.03 ± 0.02 ×10^3/μL | Basophils, % ([1]; Before): 0.3 ± 0.2% | Eosinophils (absolute) ([1]; Before): 0.2 ± 0.03 ×10^3/μL | Eosinophils, % ([1]; Before): 2.4 ± 0.4% | Hematocrit ([1]; Before): 37.8 ± 1.6% | Hemoglobin ([1]; Before): 13.1 ± 0.6 g/dL | Lymphocytes (absolute) ([1]; Before): 2.8 ± 0.2 ×10^3/μL | Lymphocytes, % ([1]; Before): 43.0 ± 1.4% | MCH ([1]; Before): 31.0 ± 0.5 pg | MCHC ([1]; Before): 34.7 ± 0.2 g/dL | MCV ([1]; Before): 89.6 ± 1.6 fL | Monocytes (absolute) ([1]; Before): 0.5 ± 0.1 ×10^3/μL | Monocytes, % ([1]; Before): 7.0 ± 1.0% | Neutrophils (absolute) ([1]; Before): 3.1 ± 0.3 ×10^3/μL | Neutrophils, % ([1]; Before): 47.4 ± 2.2% | Platelets ([1]; Before): 221.3 ± 20.8 ×10^3/μL | RBC ([1]; Before): 4.2 ± 0.2 ×10^6/µL | RDW ([1]; Before): 13.2 ± 0.2% | WBC ([1]; Before): 6.6 ± 0.4 ×10^3/μL | Basophils (absolute) % Change [1]: 0.0% | Basophils, % - % Change [1]: 0.0% | Eosinophils (absolute) % Change [1]: −28.6% | Eosinophils, % - % Change [1]: −26.3% | Hematocrit % Change [1]: 2.0% | Hemoglobin % Change [1]: 1.4% | Lymphocytes (absolute) % Change [1]: −22.1% | Lymphocytes, % - % Change [1]: −17.4% | MCH % Change [1]: 0.0% | MCHC % Change [1]: −0.5% | MCV % Change [1]: 0.3% | Monocytes (absolute) % Change [1]: 0.0% | Monocytes, % - % Change [1]: 1.8% | Neutrophils (absolute) % Change [1]: 11.6% | Neutrophils, % - % Change [1]: 16.9% | Platelets % Change [1]: −3.3% | RBC % Change [1]: 1.7% | RDW % Change [1]: 0.9% | WBC % Change [1]: −4.2% | greater area under the curve (AUC) than CaHMB ([2]; listed as FASL): 91% | AUC plasma HMB [2, 4]: 26,778 ± 1,980 nmol/180 min | tpeak (time to reach peak plasma concentration) ([2]; listed as FASL): 36.3 ± 1.3 min | tpeak (time to reach peak plasma concentration) [2, 4]: 36.3 ± 1.3 min | Cpeak (peak plasma HMB concentration) ([2]; listed as FASL): 231 ± 21 nmol/mL | Cpeak (peak plasma HMB concentration) [2, 4]: 231.2 ± 21.0 nmol/mL
